According to publication PMC8219695 (Nature Communications, 2021):
“And” between values parts separate entries of the source, which are not always exact repeats. Identical values can stand only once.

Legend:
mMOR [1] = target: T1, mMOR (Mus musculus, UniProt P42866); assay: [125I]BNtxA radioligand competition binding, mouse MOR; settings: mean ± SEM, n = 3; [125I]BNtxA; read-out: Ki ± SEM mMOR
T1 construct: signal peptide (heterologous, not specified) (N); expressed in transfected cells; pcDNA3.1(+) construct made in house

mKOR = target: T2, mKOR (Mus musculus, UniProt P33534); assay: [125I]BNtxA radioligand competition binding, mouse KOR; settings: mean ± SEM, n = 3; [125I]BNtxA; read-out: Ki ± SEM mKOR
T2 construct: expressed in transfected cells; membranes

mDOR [2] = target: T3, mDOR (Mus musculus, UniProt P32300); assay: [125I]BNtxA radioligand competition binding, mouse DOR; settings: mean ± SEM, n = 3; [125I]BNtxA; read-out: Ki ± SEM mDOR
T3 construct: expressed in transfected cells

mMOR [3] = target: T1, mMOR; assay: CAMYEL BRET cAMP agonist assay at mMOR; format: cell-based; settings: mMOR; for cAMP %: single replicates, source data Fig 6b, listed as C11-Cl-7OH (23)
hMOR [4] = target: T4, hMOR (Homo sapiens, UniProt P35372); assay: CAMYEL BRET cAMP agonist assay at hMOR; format: cell-based; settings: for cAMP %: hMOR, single replicates, source data Fig 6c, listed as C11-Cl-7OH (23)
T4 construct: expressed in transfected cells; plasmid a gift from Dr. Nevin Lambert

mMOR [5] = target: T1, mMOR; assay: CAMYEL BRET antagonism assay at mMOR (inhibition of DAMGO); format: cell-based; settings: for Antagonist activity at mMOR, raw signal (single replicate values): source data of Fig 8a and Table 5, listed as C11-Cl-7OH (23);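 as to Antagonist activity at mMOR, raw signal (single replicate values): BRET signal rises as cAMP falls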
hMOR [6] = target: T4, hMOR; assay: cell-based
mDOR [7] = target: T3, mDOR; assay: CAMYEL BRET cAMP agonist assay at mDOR; format: cell-based; settings: Log[drug] (M) -5; single replicate values, Supplementary Figure 7B
[8] = Log[drug] (M) -13, cAMP inhibition as % of DAMGO

Question: What does the source list for `CC[C@@H]1CN2CC[C@@]3(O)C(=Nc4cc(Cl)cc(OC)c43)[C@@H]2C[C@@H]1/C(=C\OC)C(=O)OC` [11-Cl-7OH (23), 11-Cl-7OH]?
Answer: Ki (mMOR [1]): 27.1 ± 1.1 nM; Ki (mKOR): 30.7 ± 11.4 nM; Ki (mDOR [2]): 47.2 ± 2.4 nM; cAMP % (mMOR [3]; Log[drug] (M) -5): 6.435% and 6.384% and 16.5545% and 12.4027% and 11.5958% and 9.171% and 11.6377% and 17.8045% and 15.1324%; cAMP % (mMOR [3]; Log[drug] (M) -6): 18.6614% and 4.689% and 11.9914% and 8.341% and 7.121% and 7.194% and 11.7839% and 2.54% and 3.967%; cAMP % (mMOR [3]; Log[drug] (M) -7): 11.7629% and -2.4507% and 10.3244% and 12.5872% and 11.439% and 4.6796% and 1.65% and 1.082% and 0.9258%; cAMP % (mMOR [3]; Log[drug] (M) -8): -5.129% and 6.21% and -1.081% and 7.275% and 2.298% and 9.574% and 9.25% and -4.751% and 0.6222%; cAMP % (mMOR [3]; Log[drug] (M) -9): 2.051% and -8.733% and 10.4525% and -1.843% and 3.825% and 12.7464% and 9.611% and 1.736% and 14.7967%; cAMP % (mMOR [3]; Log[drug] (M) -10): -1.957% and 12.894% and -4.791% and 0.07219% and 0.3304% and -0.4025% and -1.324% and -2.101% and 5.511%; cAMP % (mMOR [3]; Log[drug] (M) -11): 22.2971% and -9.038% and -0.05376% and 20.8701% and 7.205% and 16.4135% and 3.836% and -1.905% and 3.566%; cAMP % (mMOR [3]; [8]): -0.5682% and 13.1006% and 15.0829% and 7.325% and 4.046% and 5.291% and 0.9156% and 1.033% and -1.949%; Emax (mMOR [3]; maximal inhibitory effect on cAMP levels relative to DAMGO): 13%; EC50 (mMOR [3]; n = 3, read-out: EC50): 841 nM; EC50 (hMOR [4]): 717 nM; Emax (hMOR [4]): 23%; cAMP % (hMOR [4]; Log[drug] (M) -5): 24.2611% and 22.8658% and 18.7916% and 30.0534% and 27.3903% and 24.7857% and 23.2679% and 13.839% and 17.3142%; cAMP % (hMOR [4]; Log[drug] (M) -6): 9.687% and 7.44% and 12.4984% and 21.3658% and 16.0104% and 20.3589% and 22.2511% and 5.161% and 10.3498%; cAMP % (hMOR [4]; Log[drug] (M) -7): 10.7608% and 2.692% and 16.2864% and 16.6401% and 9.757% and 17.1458% and 11.7292% and -1.4445% and 4.302%; cAMP % (hMOR [4]; Log[drug] (M) -8): -0.5618% and -5.878% and 6.44% and 1.224% and 16.3686% and 4.4% and 2.431% and 4.114% and 14.2353%; cAMP % (hMOR [4]; Log[drug] (M) -9): 10.2691% and 5.0211% and 7.383% and 19.7872% and -6.277% and -5.837% and 8.258% and 7.437% and 22.4848%; cAMP % (hMOR [4]; Log[drug] (M) -10): 8.636% and -0.2251% and 3.667% and 1.365% and 3.739% and -5.1037% and -3.2997% and -3.028% and 15.0493%; cAMP % (hMOR [4]; Log[drug] (M) -11): 5.568% and -0.09872% and -1.208% and 11.7024% and 0.1582% and 4.468% and 2.344% and 1.001% and -3.345%; cAMP % (hMOR [4]; [8]): 15.4388% and 3.989% and -0.7984% and 3.857% and -0.6743% and 5.111% and -4.4777% and 4.879% and 4.064%; IC50 (mMOR [5]): 320 nM; Antagonist activity at mMOR, raw signal (single replicate values) (mMOR [5]; Log[drug] (M) -5): 0.05136 and 0.05514 and 0.02734 and 0.03399 and 0.05638 and 0.03174 and 0.0604 and 0.04123 and 0.04243; Antagonist activity at mMOR, raw signal (single replicate values) (mMOR [5]; Log[drug] (M) -6): 0.06527 and 0.08059 and 0.08038 and 0.07596 and 0.06694 and 0.07308 and 0.08894 and 0.05009 and 0.07552; Antagonist activity at mMOR, raw signal (single replicate values) (mMOR [5]; Log[drug] (M) -7): 0.171 and 0.1656 and 0.1405 and 0.1722 and 0.164 and 0.1548 and 0.1502 and 0.1538 and 0.167; Antagonist activity at mMOR, raw signal (single replicate values) (mMOR [5]; Log[drug] (M) -8): 0.2056 and 0.1941 and 0.1944 and 0.1853 and 0.1938 and 0.208 and 0.1628 and 0.1712 and 0.1714; Antagonist activity at mMOR, raw signal (single replicate values) (mMOR [5]; Log[drug] (M) -9): 0.1978 and 0.1907 and 0.2036 and 0.185 and 0.2114 and 0.2034 and 0.1755 and 0.1681 and 0.1723; Antagonist activity at mMOR, raw signal (single replicate values) (mMOR [5]; Log[drug] (M) -10): 0.2063 and 0.2294 and 0.2076 and 0.2027 and 0.2013 and 0.2029 and 0.1793 and 0.1909 and 0.175; Antagonist activity at mMOR, raw signal (single replicate values) (mMOR [5]; Log[drug] (M) -11): 0.1963 and 0.2104 and 0.2086 and 0.1881 and 0.2054 and 0.206 and 0.1763 and 0.1632 and 0.1788; IC50 (hMOR [6]): 920 nM; Agonist activity of 7OH analogs at mDOR (mDOR [7]): 26.1167 and 29.2367 and 36.3699 and 32.2405 and 24.7678 and 31.8502 and 20.8066 and 14.4196
